The values below come from a melting point compilation (Tetko et al.; mined from patent text by program, amines drawn as free bases though some values may be those of a salt).

`N[C@@H](Cc1ccc(C(F)(F)F)cc1)[C@H](O)c1ccoc1` (racemic) registered a melting point of 91 to 92 °C.
For the compound `COc1cc(C#N)ccc1-c1cc2cc(Cl)c(Cl)cc2[nH]1`, the melting point was in the range of 241 to 244 °C.
Next, `CC1(C)OC(=O)C(OC2CCCC2)=C1c1ccc(S(C)(=O)=O)cc1`: 121 to 122 °C; `OC1CCC2(CC1)Cc1ccccc1C2`: 76 to 78 °C; `COc1ccc(NN=C(Sc2ccc(S(C)(=O)=O)cc2)C(C)=O)cc1`: 145 to 153 °C.
Next, `COc1cn(-c2cccc(C(F)(F)F)c2)nc(C(C)=O)c1=O`: 155 to 156 °C; `O=C1NCCc2ccc(OCCCCN3CCN(c4cccc5c4OCCCO5)CC3)nc2N1`: 78 to 79 °C; `Cc1cc(C)c(-n2c(C)c(C)c3c(C#N)nc(C)nc32)c(C)c1`: 188 to 190 °C.
Next, `O=C1Cc2cc(Cl)ccc2Oc2ccc(F)cc21`: 91 to 92 °C.
As for `COc1cc2c(cc1OCCCN1CCC(c3[nH]cc4cc(F)ccc34)CC1)CCCC2=O`, the melting point fell in the range of 129 to 131 °C.
Next, `CCOC(=O)Oc1ccc(S(=O)(=O)N2c3cc(Br)ccc3-n3cccc3[C@@H]2CC)cc1`: 137 to 139 °C; `Cc1nc(N)c(Br)c(NNCc2cncc(Br)c2)n1`: 221 to 222 °C.
The value for `CCCCCCCCCCCCCCCCC(O)CN` (stereo not drawn) was 75.2 to 76.5 °C.
Regarding `CCOC(=O)c1cn(N=C(C)C)c2c(F)c(F)c(F)cc2c1=O`, the melting point is 166 °C.
Next, `O=C1N(C(c2ccccc2)c2ccccc2)c2cc(F)ccc2C1(O)c1cc2c(cc1O)OCC2` (stereo not drawn): 147 to 149 °C.
The value for `C#CCOc1cc(C(=O)OC)cc(OC)c1OC` was 72 to 73.5 °C; that for `CCCCc1nn2c(c1Cc1ccc(-c3ccccc3C(=O)O)cc1)CCCC2` was 162 °C.
As for `CCOCc1nc2c(N)nc3cc(OCCCN4CCCC4=O)ccc3c2n1CCCCN1CCCS1(=O)=O`, the melting point fell in the range of 142 to 144 °C.
The value for `N#Cc1cnn2c1N(C(=O)CCl)CC=C2c1cccc(Cl)c1` was 196 to 198 °C; that for `O=C(O)c1cccc(-c2ccc3c(c2)C(c2cc(Cl)ccc2Cl)CC3)c1` (stereo not drawn) was 229 to 230 °C; that for `CCC(C)Cc1ccc(C(=O)O)cc1C#N` (stereo not drawn) was 91.2 to 92.1 °C.
The value for `Cc1noc(NS(=O)(=O)c2ccc(S(=O)(=O)c3ccccc3)s2)c1Br` was 139 to 142 °C.
In turn, `CC(C)Oc1ccc(-c2ccc3c(c2)C=C(C(=O)Nc2ccc(CN(C)C4CCOCC4)cc2)CCS3(=O)=O)cc1` gave a melting point of 245 to 247 °C.
In the case of `CCNc1ccc(F)c(-c2cccnc2)c1F`, the melting point was in the range of 79 to 80 °C.
Next, `COC(=O)N[C@@H](Cc1ccc(OCc2ccccc2)cc1)C(=O)Nc1c(C(C)C)cccc1C(C)C`: 179 to 182 °C; `CC(C)(C)NC(=O)NC(C)(C)C`: 246 °C.
Next, `CC(=O)OCCn1nc(-c2cc(C(C)(C)C)c(O)c(C(C)(C)C)c2)c2ccc(C)nc21`: 102 to 103 °C.
In turn, `Cc1cc2c(Cl)c([N+](=O)[O-])cnc2s1` displayed a melting point of 96 to 98 °C.
Turning to `CCn1c2c(c3ccccc31)C=CN(C(=O)OC)C=C2C(=O)OC`, the melting point was determined as 129 °C.
In turn, `CC(=Cc1ccccc1Br)c1ccc2c(c1)C(C)(C)CCC2(C)C` displayed a melting point of 116 to 117 °C.
The value for `CC(C)(C)OC(=O)N1CCC(C(=O)C2CCCCC2=O)CC1` (stereo not drawn) was 71 to 72 °C; that for `CN1C(O)=C(C(=O)Nc2ccc(Cl)cc2)c2cscc2S1(=O)=O` was 154 to 156 °C; that for `COc1ccccc1NC(=O)Nc1nc(Oc2ccc3ccccc3c2)nc(N(CCC(=O)O)Cc2ccccc2C(F)(F)F)n1` was 232 to 233 °C.
The compound `O=C1OC(O)c2c(F)ccc(F)c21` (stereo not drawn) showed a melting point of 125 to 128 °C.
As for `COc1cccc(OC)c1-c1ccc(C[C@H](NC(=O)c2c(Cl)cc(-c3cscn3)cc2Cl)C(=O)O)cc1`, the melting point came out at 186 °C.
The value for `CC(C)C(=O)NS(=O)(=O)c1cccc([N+](=O)[O-])c1` was 136 to 138 °C.
Consider `CN1Cc2c(Cl)ncn2-c2cccnc2C1=O`, for which the melting point lay in the range of 247 to 248 °C.
Next, `NS(=O)(=O)c1cccc(NC(=O)NC2N=C(c3ccccc3F)c3ccccc3N(CC(=O)N3CC4CCC(CC4)C3)C2=O)c1` (racemic): 221 to 226 °C; `CCc1ccc2c(c1)C(c1ccccc1F)=NCC1CN=C(C)N21` (stereo not drawn): 152 to 154 °C; `O=C(O)c1ccc(C(F)(F)F)c([N+](=O)[O-])c1`: 156 to 158 °C.
On to `O=C1CCC(c2ccc(-c3ccccc3F)cc2)O1` (stereo not drawn), for which the melting point fell in the range of 74 to 75 °C.
The value for `O=S(=O)(Nc1cccc(Nc2nc(NC3CCCC3)c3nc[nH]c3n2)c1)C(F)(F)F` was 243 to 246 °C; that for `Cc1cc(CCCOc2c(Cl)cc(C(=O)O)cc2Cl)on1` was 156 to 157 °C; that for `COc1cc(O)c([N+](=O)[O-])c2ccccc12` was 128 to 130 °C.
The value for `O=C1OC(=O)c2cc(Oc3ccc(C(F)(F)F)cc3Cl)ccc21` was 88 to 91 °C.
The value for `CCOC(=O)c1cnc2scc(C)n12` was 45 °C; that for `Cc1c(C=O)c2c(c(C)c1NC(=O)CC(C)(C)C)C(c1ccc(C(C)C)cc1)CO2` (stereo not drawn) was 177 to 178 °C; that for `CCOC(=O)C(C#N)=CNc1ncc(C)cc1C` was 156 to 159 °C.
For the compound `O=C(O)CCC(=O)c1ccc(NC(=O)c2ccc(F)cc2)cc1`, the melting point lay in the range of 253 to 255 °C.
Next, `COc1cc(C)nc(NC(=O)NS(=O)(=O)c2ccccc2NC(C)=O)n1`: 161 to 162 °C; `COc1cc(C2COc3c(C)c(C)c(NC(=O)CC(C)(C)C)c(C)c32)ccc1C(C)=O` (stereo not drawn): 131 to 133 °C; `O=c1[nH]c2ccc(C3CCNCC3)cc2[nH]1`: 214 to 215 °C.
Next, `O=C(O)c1ccc(Br)c(CN2CCC(c3cn(Cc4ccncc4)c4ccccc34)CC2)c1`: 167 to 168 °C; `COCCOCc1nn2c(-c3ccc(OC)cc3)nnc2c2ccccc12`: 129 to 131 °C.
The value for `COC(=O)c1csc2c(=O)cc(C(F)(F)F)oc12` was 148 to 158 °C; that for `O=C(NCP(=O)(O)O)c1ccccc1` was 171 to 173 °C; that for `CCCNC(=O)c1nc(CCl)n(-c2ccc(Cl)cc2C(=O)c2ccccc2Cl)n1` was 110 to 113 °C.
`O=C(NC1CCN(CCC(O)c2ccc3c(c2)OCCO3)CC1)c1ccccc1` (stereo not drawn): the melting point lay within 193 to 197 °C.
The value for `Cc1nc2cccc3nc(SCCCCNS(=O)(=O)C(F)(F)F)c1n23` was 129 to 131 °C.
Compound `N#Cc1cccc(C2=Nc3ccc(C#Cc4ccccc4F)cc3NC(=O)C2)c1` registered a melting point of 213 to 214 °C.
The value for `COc1cc2c(cc1O)CCN(CC(=O)c1ccc(OC)c(OC)c1)C2` was 149 to 150 °C.
In turn, `CC(=CC#N)NCc1ccc(Cl)nc1` returned a melting point of 95 to 98 °C.
The value for `Cc1nnc2n1-c1ccccc1C(c1ccccc1)=NC2` was 216 to 218 °C.
The value for `CC(C)c1cccc(C(C)C)c1NC(=O)CN1C(=O)N(c2ccccc2)C2(CCCC2)C1=O` was 275 to 277 °C; that for `O=C(c1ccccc1)c1ccc(OCCBr)cc1O` was 87 to 89.5 °C; that for `CCNC(=O)c1c([Si](C)(C)C)ccc(C=O)c1Cl` was 140 to 142 °C.
Compound `Cc1c(C)c2c(c(C)c1N)CC(C)(CN1CCC(OCC=Cc3ccccc3)CC1)O2` (stereo not drawn) gave a melting point of 77 to 79 °C.
Take `NC(=O)c1cccc(-c2nc(-c3ccccc3)c(-c3nc4ccccc4c(=O)n3-c3ccccc3Cl)s2)c1`: the melting point was 212 to 214 °C.
The value for `COc1cc2c(=O)[nH]c3c(c2cc1OC)c1ccccc1n3C` was more than 310 °C; that for `CC(C)COc1ccccc1Nc1ncc(C(=O)O)c(=O)[nH]1` was 213 to 215 °C.
Next, `Nc1nc(Oc2ccc(C(F)(F)F)cc2Cl)ccc1[N+](=O)[O-]`: 80 to 84 °C; `COC(=O)c1ccc(S(C)(=O)=O)c(C=NO)c1Cl`: 126 to 128 °C.
As for `Clc1ccc(C2Cc3cnc4[nH]ncc4c3-c3ccccc32)cc1Cl` (stereo not drawn), the melting point was in the range of 76 to 78 °C.
The value for `N#Cc1ccc(NC(=O)c2cccc(OCc3ccc(F)cc3)c2)nc1` was 170 to 171 °C; that for `Oc1cc(-c2ccc(Cl)cc2Cl)n[nH]1` was 198 °C; that for `CC(ON=C(C(=O)O)c1ccc(O)c(Cl)c1)C(=O)OC(C)(C)C` (stereo not drawn) was 148 to 151 °C.
With `O=C(NCC(c1ccccc1)c1ccccc1)N1CCC(C(=O)O)(c2ccccc2)CC1`, the melting point lay in the range of 173 to 174 °C.
Next, `CCOC(=O)C(=O)Nc1ccc(Cl)cc1[N+](=O)[O-]`: 156 to 157 °C.
Next, `CCOc1nc2cccc(C(=O)O)c2n1Cc1ccc(-c2ccccc2)c(-c2nnn[nH]2)c1`: 183 to 185 °C.
The value for `N#Cc1c(N2CCN(C(=O)c3ccc4ccccc4n3)CC2)c2ccccc2n(Cc2ccc(F)cc2)c1=O` was 144 to 157 °C.
In turn, `CN1CCc2nc3cc(Cl)ccc3c(Oc3ccccc3)c2C1` gave a melting point of 138 to 139 °C.
In turn, `CC(C)=CCC(O)C(C)C1CC=C2C3=C(CCC21C)C1(C)CCC(O)C(C)(C)C1CC3` (stereo not drawn) returned a melting point of 70 to 72 °C.
The compound `COc1cc2c(cc1O)CCCC(=O)N2Cc1cc(OC)c(OC)c(OC)c1` returned a melting point of 170 to 171 °C.
Next, `OCCOc1ccc(C=Cc2ncn(CC(O)(Cn3cncn3)c3ccc(F)cc3F)n2)cc1` (stereo not drawn): 152 to 155 °C.
Next, `COc1cc(Nc2nccc(-c3cccc(NCCCO)c3)n2)cc(OC)c1OC`: 92 to 95 °C; `COc1cc(C(=O)c2c(N)sc3c2CCN(C(=O)c2ccccc2)C3)ccc1OC(C)C`: 158 to 160 °C.
The value for `CCCCCCCCCCCCCCCCCCN(CCCCCCCCCCCCCCCCCC)c1ccc([N+](=O)[O-])cc1[N+](=O)[O-]` was 55.5 to 57.5 °C; that for `c1ccc(Cn2c3c(c4ccccc42)CCC(Cc2nnn[nH]2)S3)cc1` (stereo not drawn) was 160 to 165 °C.
